Experimental data taken from EP0511003B1, “Superactive GRF analogs” (ELI LILLY AND COMPANY, priority 1991, dated 1992).
Marks after values point to notes of the source that are not given here. Each block holds one substance with its values, some of them ahead of it.

Assays:
[1] = biological target: T1, rat primary pituitary cells (Rattus norvegicus, UniProt Q02644); test: Growth hormone release in vitro from rat primary pituitary cells; format: cell-based; conditions: growth hormone released into media after exposure to 7 doses of secretagogue for 3h
T1 sequence (Q02644 23-464): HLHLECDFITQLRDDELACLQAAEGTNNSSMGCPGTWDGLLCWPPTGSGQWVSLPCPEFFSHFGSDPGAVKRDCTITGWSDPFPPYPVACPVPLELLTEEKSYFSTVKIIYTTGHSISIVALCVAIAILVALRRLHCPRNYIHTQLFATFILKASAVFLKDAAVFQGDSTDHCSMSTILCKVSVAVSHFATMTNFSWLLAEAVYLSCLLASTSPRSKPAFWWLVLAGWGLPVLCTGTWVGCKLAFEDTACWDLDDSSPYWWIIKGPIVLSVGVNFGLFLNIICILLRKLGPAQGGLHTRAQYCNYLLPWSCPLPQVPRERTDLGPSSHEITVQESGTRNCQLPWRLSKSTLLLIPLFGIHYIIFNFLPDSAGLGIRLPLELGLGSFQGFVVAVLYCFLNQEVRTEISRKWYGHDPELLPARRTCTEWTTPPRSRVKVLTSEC
Protocol: The polypeptide compounds of the invention may be assayed in numerous systems. One in vivo assay is carried out in sodium pentobarbital-anesthetized rats. Wehrenberg et al., Biochem. Biophys. Res. Commun. 109:382 (1982). Growth hormone release is measured in vitro with rat anterior pituitary cells. Heiman et al., Endocrinol. 116:410 (1985).

barrows = test: In vivo effects in barrows injected subcutaneously or intravenously 3 times daily (urinary urea nitrogen excretion and serum parameters); conditions: for GH: serum Growth Hormone level; for GH / TRIG. / BUN / FFA / GLUCOSE / INSULIN: 12th day of treatment; for GH / TRIG. / BUN / FFA / GLUCOSE / INSULIN / UREA: means; for TRIG.: serum triglycerides; for BUN / FFA / GLUCOSE / INSULIN: serum; for UREA: urinary urea nitrogen excretion, injected 3 times daily
Protocol: A carrier solution was prepared by dissolving 1.38 g of Na2HP04 and 1.0g PSA with pyrogen free H2O to a final volume of 1 litre, pH approximately 5.1. 27.4 mg The p-methyl hippuroyl pGRF (2-76)OH prepared in substantial accordance with the teaching of Example 4.B. above was added to 64 ml of the carrier solution to achieve a final concentration of […].
Twenty crossbred barrows, averaging approximately 72 kg, with an indwelling catheter which had been surgically inserted into the femoral vein, were used to determine the effects of p-methyl hippuroyl pGRF (2-76)OH. A formulation of the p-methyl hippuroyl pGRF (2-76)OH was prepared in substantial accordance with the teaching of Example 11 above and injected 3 times daily at a rate of 10.0 µg/kg/inj., either intravenously (I.V.) or subcutaneously (S.Q.). The barrows were fed 2000 g of an 18.5% crude protein corn-soy diet per day, equally divided between 2 feedings at 8:00 a.m. and 4:00 p.m. The barrows were injected at 8:00 a.m., 4:00 p.m., and 12:00 p.m. Urinary urea nitrogen excretion data were collected during 1 5day control period, 4 3-day treatment periods, and 2 3-day periods after treatments were stopped. Thirty blood serum samples were collected during a 24-hour period on the 12th day of treatment. The serum samples were assayed for GH, BUN, glucose, insulin, FFA, and triglycerides.

[2] = Table 1, bGRF analogs, EC50 is the calculated median effective dose
[3] = injected 3 times daily at a rate of 30.0 µg/kg/d, versus control barrows

EC50 [1, 2]: 0.86 nM
Substance: Hippuroyl-1 bGRF(2-77)0H

EC50 ([1]; Table 2, pGRF(2-76)OH analogs): 0.28 nM
Substance: Hippuroyl-1 pGRF(2-76)OH

EC50 [1, 2]: 0.59 nM
Substance: bGRF (1-77)0H [reference compound]

EC50 ([1]; Table 2, pGRF(2-76)OH analogs): 95 nM
Substance: des Tyr-1 pGRF(2-76)0H [reference compound]

EC50 [1, 2]: 0.19 nM
Substance: n-Phenylmalonamindoyl bGRF(2-77)0H

EC50 [1, 2]: 0.19 nM
Substance: p-Chloro Hippuroyl bGRF(2-77)OH

EC50 [1, 2]: 0.14 nM
Substance: p-Fluoro Hippuroyl bGRF(2-77)0H

EC50 [1, 2]: 0.33 nM
Substance: p-Hydroxy Hippuroyl bGRF(2-77)0H

EC50 [1, 2]: 0.05 nM
Substance: p-Methyl Hippuroyl bGRF(2-77)OH

EC50 ([1]; Table 2, pGRF(2-76)OH analogs): 0.06 nM
EC50 ([1]; Table 3, p-Methyl Hippuroyl-1 pGRF analogs of different length): 0.06 nM
Substance: p-Methyl Hippuroyl pGRF(2-76)OH
increase in serum GH levels (barrows; [3]): 4 fold
reduction in serum BUN levels (barrows; [3]): 54%
reduction in urinary urea nitrogen excretion (barrows; [3]): 41%
GH (barrows; IV 30 µg/kg/d): 9.9^b ng/ml
GH (barrows; SQ 30 µg/kg/d): 8.9^b ng/ml
TRIG. (barrows; IV 30 µg/kg/d): 35.3^b mg/dla
TRIG. (barrows; SQ 30 µg/kg/d): 32.5^ab mg/dla
BUN (barrows; IV 30 µg/kg/d): 7.0^b mg/dl
FFA (barrows; IV 30 µg/kg/d): 97.3^b µM/la
GLUCOSE (barrows; IV 30 µg/kg/d): 132.7^b mg/dl
INSULIN (barrows; IV 30 µg/kg/d): 76.8^b µu/ml
BUN (barrows; SQ 30 µg/kg/d): 7.5^b mg/dl
FFA (barrows; SQ 30 µg/kg/d): 97.5^b µM/la
GLUCOSE (barrows; SQ 30 µg/kg/d): 147.3^b mg/dl
INSULIN (barrows; SQ 30 µg/kg/d): 112.9^C µu/ml
depression in urinary urea nitrogen excretion prolonged after treatments were stopped (barrows; subcutaneously injected barrows): 2 to 3 days
UREA (barrows; IV 30 µg/kg/d): 16.3^b g/day
UREA (barrows; SQ 30 µg/kg/d): 16.4^b g/day

EC50 ([1]; Table 2, pGRF(2-76)OH analogs): 0.06 nM
Substance: p-Methyl Phenylmalonamindoyl pGRF(2-76)OH

EC50 [1, 2]: 0.51 nM
Substance: p-Nitro Hippuroyl bGRF (2-77)0H
